# Data published in patent publication CN104546697A, “一种右旋布洛芬注射液药物组合物及其制备方法” (CHENGDU EASTON PHARMACEUTICAL Co Ltd, priority 2013, dated 2015).
# Columns and labels:
# [1] = system: pain threshold in the mouse hot plate method [小鼠热板法痛阈]; assay: Effect on pain threshold in the mouse hot plate method; type: in vivo, Kunming mouse, female; conditions: IV, dose exceeding 80mg/kg
# [2] = background art; cited from earlier work
# [3] = system: carrageenan-induced rise of body temperature in rats [大鼠角叉菜胶诱导的体温升高]; assay: Effect on carrageenan-induced rise of body temperature in rats; type: in vivo, SD rat; conditions: rat, IV
Compound,analgesic effect above the best dose range [1],pharmacological activity relative to levorotatory ibuprofen [2],pharmacological activity relative to racemate [2],"dose range with the best, dose-dependent effect ([3]; carrageenan-induced rise of body temperature)",temperature-lowering effect above the best dose range ([3]; dose exceeding 40mg/kg),pharmacological activity [2]
CC(C)Cc1ccc([C@H](C)C(=O)O)cc1 [右旋布洛芬],镇痛效果反而减弱,160 fold,1.6 fold,7.5~30 mg/kg,降温效果反而减弱,
CC(C)Cc1ccc([C@@H](C)C(=O)O)cc1 [左旋布洛芬],,,,,,非活性成分
